According to ChEMBL document CHEMBL3217721 (Medchemcomm, 2012):
Calls of active or inactive are those of the source. The rule behind the calls is not given here.

Tests used:
[1] = tested on: DU-145; assay: Growth inhibition of human DU145 cells by sulforhodamine B assay; format: functional
[2] = tested on: HUVEC; assay: Vascular disrupting activity in HUVEC assessed as disruption of capillary-like network of tubules at 0.01 to 1 uM after 2 hrs by matrigel assay; format: functional, cell-based; conditions: Homo sapiens
[3] = tested on: NCI-H460; assay: Growth inhibition of human NCI-H460 cells by sulforhodamine B assay; format: functional
[4] = tested on: SK-OV-3; assay: Growth inhibition of human SKOV3 cells by sulforhodamine B assay; format: functional
[5] = molecular target: Tubulin (Bos taurus, UniProt Q6B856+Q862L2+Q862F3); assay: Inhibition of bovine brain tubulin polymerization after 20 mins by spectrophotometric analysis
[6] = tested on: HUVEC; assay: Vascular disrupting activity in HUVEC assessed as disruption of capillary-like network of tubules after 2 hrs by matrigel assay; format: functional, cell-based; conditions: Homo sapiens
[7] = molecular target: T1, Tubulin (Homo sapiens) (UniProt P68371+Q9H4B7+P0DPH7+P68366+Q13509+Q71U36+P04350+Q3ZCM7+P07437+P68363+Q9BQE3+Q6PEY2+Q13885+Q9BVA1+Q9BUF5); assay: Displacement of [3H]-Colchicine from tubulin (unknown origin) at 5 uM relative to control; format: protein-complex assay
[8] = molecular target: T1, Tubulin (Homo sapiens); assay: Displacement of [3H]-Colchicine from tubulin (unknown origin) at 1 uM relative to control; format: protein-complex assay
[9] = tested on: HUVEC; assay: Vascular disrupting activity in HUVEC assessed as cell rounding at 0.1 to 1 uM after 2 hrs by matrigel assay; format: functional, cell-based; conditions: Homo sapiens
[10] = tested on: HUVEC; assay: Vascular disrupting activity in HUVEC assessed as disruption of capillary-like network of tubules at 1 uM after 2 hrs by matrigel assay; format: functional, cell-based; conditions: Homo sapiens
[11] = tested on: HUVEC; assay: Vascular disrupting activity in HUVEC assessed as disruption of capillary-like network of tubules at 0.01 to 0.1 uM after 2 hrs by matrigel assay; format: functional, cell-based; conditions: Homo sapiens
[12] = tested on: HUVEC; assay: Vascular disrupting activity in HUVEC assessed as cell rounding at 1 uM after 2 hrs by matrigel assay; format: functional, cell-based; conditions: Homo sapiens

Row | Structure (SMILES) | GI50 ([1]; Homo sapiens, DU-145) | GI50 [3] | GI50 [4] | GI50 [1] | IC50 [5] | inhibition [7] | other results
1 | COc1ccc2c(c1N)CCCC=C2c1cc(OC)c(OC)c(OC)c1 [listing 1 of 3 here] |  |  | 0.0329 nM | 1.11 nM | 1200 nM |  | 
2 | COc1ccc2c(c1N)CCCC=C2c1cc(OC)c(OC)c(OC)c1 [listing 2 of 3 here] |  |  |  |  |  | 91% | Activity [6]: Dose-dependent effect; inhibition [8]: 65%; Activity [9]: Active
3 | COc1ccc2c(c1N)CCCC=C2c1cc(OC)c(OC)c(OC)c1 [listing 3 of 3 here] |  |  |  | 3.53 nM |  |  | 
4 | COc1cc(C2=CCCCc3c2ccc(OC)c3[N+](=O)[O-])cc(OC)c1OC | 211 nM | 216 nM | 152 nM |  | 2500 nM | 63% | Activity [10]: Active; Activity [11]: inactive; Activity [12]: Active

Second part, led by results:

Row | GI50 ([1]; Homo sapiens, DU-145) | GI50 [3] | GI50 [4] | Structure (SMILES) | GI50 [1] | IC50 [5] | inhibition [7] | other results
5 | 0.54 nM | 2.8 nM | 0.42 nM | COc1ccc(/C=C\c2cc(OC)c(OC)c(OC)c2)cc1O [COMBRETASTATIN A4] |  |  |  | Activity [2]: Active
6 | 33 nM | 15 nM | 38 nM | COc1ccc(/C=C\c2cc(OC)c(OC)c(OC)c2)c(O)c1O [COMBRETASTATIN A-1] |  |  |  | 
